Experimental data: US5627191A, “Therapeutic agents” (The Boots Company PLC, priority 1992, dated 1997)
Where a name gives a salt, the structure may show the parent alone.

Tests used:
[1] = biological target: T1, adrenal membrane angiotensin II receptor (Oryctolagus cuniculus, UniProt P34976); assay: Test A: binding affinity to the adrenal membrane angiotensin II receptor in vitro; parameters: species or system rabbit (male New Zealand white); conditions: rabbit adrenal membranes, 0.05 nM [^125 I]angiotensin II, 60 minutes at 25° C.; read-out: Ki from Test A
T1 construct: Aliquots of rabbit adrenal membranes containing 10-30 μg protein were incubated; from tissue; host or cells: adrenal gland membranes of male New Zealand white rabbits
T1 sequence (P34976 1-359): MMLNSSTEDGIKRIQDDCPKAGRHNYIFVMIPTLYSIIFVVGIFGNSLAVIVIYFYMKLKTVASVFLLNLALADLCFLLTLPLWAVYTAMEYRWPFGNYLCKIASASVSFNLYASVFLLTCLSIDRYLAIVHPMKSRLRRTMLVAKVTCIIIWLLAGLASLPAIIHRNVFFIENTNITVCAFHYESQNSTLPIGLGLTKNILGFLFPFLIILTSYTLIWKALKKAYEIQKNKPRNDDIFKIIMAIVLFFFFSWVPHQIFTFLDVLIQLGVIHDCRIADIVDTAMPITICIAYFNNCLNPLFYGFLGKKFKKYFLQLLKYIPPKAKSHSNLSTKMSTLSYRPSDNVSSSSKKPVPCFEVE
Procedure: In test A the binding affinity of compounds to the adrenal membrane angiotensin II receptor was determined in vitro and in tests B and C the antihypertensive effect of the compounds was measured in vivo. A detailed description of the tests follows. Test A 1) Preparation of Membranes Adrenal glands from male New Zealand white rabbits were homogenised on ice in 20 mM aqueous sodium bicarbonate solution containing 50 μM PMSF (phenylmethanesulphonyl fluoride) (2 ml/g wet weight) using a Polytron (Trademark) homogeniser for 3×15 seconds at setting 8. The homogenate was centrifuged at 900 g for 10 minutes at 4° C. and the pellet was discarded. The supernatant was recentrifuged at 30000 g for 30 minutes at 4° C., and the resulting pellet was resuspended in assay buffer (50 mM Tris-HCl, pH 7.4, containing 1 mM EDTA, 6.5 mM MgCl2, 125 mM NACl, 50 μM PMSF, 5 μg/ml pepstatin and 50 μg/ml each of leupeptin, antipain, aprotinin and chymostatin): 10 ml per g original tissue wet weight. Polyethylene glycol was added (final concentration 30%) as a cryopreservant and the membrane preparation divided into aliquots and stored at -80° C. until required. Protein was determined by a modification of the method of Lowry (Markwell et al, (1978) Anal. Biochem., 87: 206-210). 2) Binding Assay Aliquots of rabbit adrenal membranes containing 10-30 μg protein were incubated with 0.05 nM [^125 I]angiotensin II in the presence or absence of potential angiotensin II antagonists in 1 ml polyamide tubes in a total volume of 200 μI assay buffer. After incubation for 60 minutes am 25° C. the reaction was terminated by the addition of ice-cold assay buffer, and the bound and free radioactivity was separated through Skatron (Trademark) receptor-binding filters, pre-wetted with assay buffer, using a Skatron cell harvester. The filters were washed with ice-cold phosphate buffered saline, dried, and the trapped radioactivity was determined using a gamma counter. Non-specific binding, measured in the presence of 2 μM unlabelled angiotensin II, was subtracted from total binding to obtain specific binding. Radioligand binding curves were analysed using EBDA and LIGAND (Cambridge Biosoft). Values for binding affinity were obtained by nonlinear regression analysis of untransformed data. The activities of the compounds described in the Examples given hereinafter are set out below in Table A, Column 1.

[2] = test system: Aoki-Okamoto strain of spontaneously hypertensive rat; assay: Test B: oral antihypertensive effect, threshold dose; type: in vivo; conditions: dose giving a reduction of blood pressure of between 9 and 16% after correction, 1.5 and 5.0 hours after dosing
Procedure: (§1) In test A the binding affinity of compounds to the adrenal membrane angiotensin II receptor was determined in vitro and in tests B and C the antihypertensive effect of the compounds was measured in vivo. A detailed description of the tests follows.
(§2) Female rats, weight range 180-240 g, of the Aoki-Okamoto strain of spontaneously hypertensive rat were used. The rats in groups of four were fasted overnight before administration of the test compound. Blood pressure was determined in the following way. The rats were placed in a cabinet kept at 38° C. with their tails protruding through holes in the cabinet. After 30 minutes in the cabinet blood pressure was measured using an inflatable cuff placed round the base of the mail and arterial pulsations monitored with a pneumatic pulse transducer. […] The pressure in the cuff at which arterial pulsations reappeared was taken as the blood pressure. The rats were removed from the cabinet and each group orally dosed with a given dose of the test compound given as a solution or suspension in 0.25% aqueous carboxymethylcellulose. In addition to the predose reading, blood pressure was measured at 1.5 and 5.0 hours after dosing. The degree of blood pressure reduction sufficient to achieve a significance level of p<0.01 compared to controls was 9% after correction for control changes at appropriate time intervals. Thus, compounds were considered to be active in this test if they produced a reduction of blood pressure after correction of 9% or greater than 9%.
(§3) Threshold antihypertensive doses of compounds of formula I were determined in the following way. Compounds were tested initially at a particular dose level, for example 90 mg/kg.
The activities of the compounds described in the Examples given hereinafter are set out below in Table A, Column 2.

[3] = test system: Aoki-Okamoto strain of spontaneously hypertensive rat; assay: Test C: oral antihypertensive effect after pretreatment with bendrofluazide, threshold dose; type: in vivo; conditions: pretreated with bendrofluazide 10 mg/kg at 16 hours and 2 hours prior to dose
Procedure: as §1, §2, §3
The procedure of Test B above was carried out subject to the modification of pretreating the rats with bendrofluazide 10 mg/kg (an orally administered diuretic) at 16 hours and 2 hours prior to the dose of the test compound, to ensure activation of the reninangiotensin system.
The activities of the compounds described in the Examples given hereinafter are set out below in Table A, Column 3.

Row | Ki [1] | SMILES | Threshold anti-hypertensive dose from Test B [2] | Threshold anti-hypertensive dose from Test C [3]
1 | 393 nM | CCc1nc2c(C)c(S(=O)(=O)N(C)C)c(C)nc2n1Cc1ccc(-c2ccccc2-c2c(O)c(=O)c2=O)cc1 [Example 11, 2-ethyl-3-[2'-(2-hydroxy-3,4-dioxocyclobut-1-en-1-yl)biphenyl-4-ylmethyl]-5,7, N,N-tetramethyl-3H-imidazo[4,5-b]pyridine-6-sulphonamide mono-ethyl acetate solvate] | – | –
2 | 5 nM | CCc1nc2c(C)cc(C)nc2n1Cc1ccc(-c2ccccc2-c2c(O)c(=O)c2=O)cc1 (single isomer, unassigned) [Example 4, 3-[4'-(2-ethyl-5,7-dimethyl-3H-imidazo[4,5-b]pyrid-3-ylmethyl)biphenyl-2-yl]-4-hydroxycyclobut-3-ene-1,2-dione] | 0.1 mg/kg | 0.1 mg/kg
3 | 3.71 nM | CCCc1nc2c(C)cc(C)nc2n1Cc1ccc(-c2ccccc2-c2c(O)c(=O)c2=O)cc1 [Example 9, sodium salt of 3-[4'-(5,7-dimethyl-2-propyl-3H-imidazo[4,5-b]-pyrid-3-ylmethyl)biphenyl-2-yl]-4-hydroxycyclobut-3-ene-1,2-dione] | 10 mg/kg | 0.1 mg/kg
4 | 27.7 nM | CCCCc1nc(Cl)c(C(=O)OC)n1Cc1ccc(-c2ccccc2-c2c(O)c(=O)c2=O)cc1 [Example 28, methyl 2-butyl-4-chloro-1-[2'-(2-hydroxy-3,4-dioxo-cyclobut-1-en-1-yl)biphenyl-4-ylmethyl]-1H-imidazole-5-carboxylate] | – | 10 mg/kg
5 | 11.1 nM | CCCCc1nc(Cl)c(C=O)n1Cc1ccc(-c2ccccc2-c2c(O)c(=O)c2=O)cc1 [Example 24, 2-butyl-4-chloro-1-[2'-(2-hydroxy-3,4-dioxocyclobut-1-en-1-yl)biphenyl-4-ylmethyl]-1H-imidazole-5-carboxaldehyde] | – | 3 mg/kg
6 | 77.9 nM | CCCCc1nc(Cl)c(/C=C(\Cc2ccccc2)C(=O)O)n1Cc1ccc(-c2c(O)c(=O)c2=O)cc1 [Example 30, (E)-2-benzyl-3-[2-butyl-4-chloro-1-[4-(2-hydroxy-3,4-dioxocyclobut-1-en-1-yl)benzyl]-1H-imidazol-5-yl]propenoic acid] | – | ≤ 10 mg/kg
7 | 3.68 nM | CCCCC1=NC2(CCCC2)C(=O)N1Cc1ccc(-c2ccccc2-c2c(O)c(=O)c2=O)cc1 [Example 22, 3-[4'-(2-butyl-5-oxo-2-imidazoline-4-spirocyclopent-1-ylmethyl)biphenyl-2-yl]-4-hydroxycyclobut-3-ene-1,2-dione] | – | 30 mg/kg
8 | 400 nM | CCc1nc2c(C)cc(C)nc2n1Cc1ccc(-c2ccccc2-c2c(N)c(=O)c2=O)cc1 [Example 6, 3-amino-4-[4'-(2-ethyl-5,7-dimethyl-3H-imidazo[4,5-b]pyrid-3-ylmethyl)biphenyl-2-yl]cyclobut-3-ene-1,2-dione] | – | –
9 | 13.3 nM | CCc1nc2c(C)c(Cl)c(C)nc2n1Cc1ccc(-c2ccccc2-c2c(O)c(=O)c2=O)cc1 [Example 12, 3-[4'-(6-chloro-2-ethyl-5,7-dimethyl-3H-imidazo-[4,5-b]pyrid-3-ylmethyl)biphenyl-2-yl]-4-hydroxy-cyclobut-3-ene-1,2-dione hydrochloride] | – | –
10 | 13.5 nM | CCCc1nc(CC)c(C=O)n1Cc1ccc(-c2ccccc2-c2c(O)c(=O)c2=O)cc1 [Example 15, 4-ethyl-1-[2'-(2-hydroxy-3,4-dioxocyclobut-1-en-1-yl)biphenyl-4-ylmethyl]-2-propyl-1H-imidazole-5-carboxaldehyde] | – | 3 mg/kg
11 | 97.6 nM | CCc1nc2c(C)cc(C)nc2n1Cc1ccc(-c2ccccc2-c2c(OC(C)C)c(=O)c2=O)cc1 [Example 1, 3-[4'-(2-ethyl-5,7-dimethyl-3H-imidazo[4,5-b]pyrid-3-ylmethyl)biphenyl-2-yl]-4-isopropoxycyclobut-3-ene-1,2-dione] | – | 30 mg/kg
